Reference: PubChem BioAssay AID248 (DTP/NCI, 2004)
Where “and” joins values, the source holds several entries; their conditions need not be identical. Equal values may be shown once. Toxic doses and inconclusive results are not listed. No stated cut-off is given here; in the data, active means T/C of 150% or more; inactive means T/C below 125%.

Tested on: L1210 leukemia ip in BDF1 mice, survival T/C
Test: NCI In Vivo Anticancer Drug Screen. Data for tumor model L1210 Leukemia (intraperitoneal) in B6D2F1 (BDF1) mice
Conditions: endpoint: mean survival time, higher = longer survival
Summary of the method: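 Value reflects the ratio of survival in compound-treated mice to survival in vehicle-treated controls, with both groups carrying the same transplanted tumor.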

[1] = dose: 100.0 mg/kg/injection, schedule: Q01DX009 (ip), vehicle: Klucel (hydroxypropylcellulose) (HPC)
[2] = dose: 100.0 mg/kg/injection, schedule: Q04DX003 (ip), vehicle: Klucel (hydroxypropylcellulose) (HPC)
[3] = dose: 200.0 mg/kg/injection, schedule: Q01DX009 (ip), vehicle: Klucel (hydroxypropylcellulose) (HPC)
[4] = dose: 200.0 mg/kg/injection, schedule: Q04DX003 (ip), vehicle: Klucel (hydroxypropylcellulose) (HPC)
[5] = dose: 400.0 mg/kg/injection, schedule: Q04DX003 (ip), vehicle: Klucel (hydroxypropylcellulose) (HPC)
[6] = dose: 400.0 mg/kg/injection, schedule: Q01DX009 (ip), vehicle: Klucel (hydroxypropylcellulose) (HPC)
[7] = dose: 50.0 mg/kg/injection, schedule: Q01DX001 (ip), vehicle: saline
[8] = dose: 100.0 mg/kg/injection, schedule: Q01DX001 (ip), vehicle: saline
[9] = dose: 100.0 mg/kg/injection, schedule: Q01DX009 (ip), vehicle: saline with Tween-80
[10] = dose: 100.0 mg/kg/injection, schedule: Q04DX003 (ip), vehicle: saline with Tween-80
[11] = dose: 200.0 mg/kg/injection, schedule: Q01DX009 (ip), vehicle: saline with Tween-80
[12] = dose: 200.0 mg/kg/injection, schedule: Q04DX003 (ip), vehicle: saline with Tween-80
[13] = dose: 400.0 mg/kg/injection, schedule: Q01DX009 (ip), vehicle: saline with Tween-80
[14] = dose: 400.0 mg/kg/injection, schedule: Q04DX003 (ip), vehicle: saline with Tween-80

Measured: T/C

NC(N)=N/N=C(\C=C\c1ccccc1)C(=O)O
inactive: dose: 240.0 mg/kg/injection, schedule: Q01DX Z (ip), vehicle: methylcellulose (MC) 102 % of control | dose: 360.0 mg/kg/injection, schedule: Q01DX Z (ip), vehicle: methylcellulose (MC) 100 % of control | dose: 480.0 mg/kg/injection, schedule: Q01DX Z (ip), vehicle: methylcellulose (MC) 96 % of control

CC1CC(C#N)C(CCC#N)CC1C (stereo unspecified)
inactive: [1] 104 % of control | [2] 93 % of control | [3] 106 % of control | [4] 102 % of control | [5] 100 % of control

COc1ccc(COC(=O)Nc2ccc(Cl)c(Cl)c2)cc1OC
inactive: [1] 95 % of control | [2] 101 % of control | [3] 88 % of control | [4] 106 % of control | [6] 95 % of control | [5] 90 % of control

FC1(F)SC2CCCCCCC2C1(F)F (stereo unspecified)
inactive: dose: 12.5 mg/kg/injection, schedule: Q01DX009 (ip), vehicle: Klucel (hydroxypropylcellulose) (HPC) 98 % of control | dose: 12.5 mg/kg/injection, schedule: Q04DX003 (ip), vehicle: Klucel (hydroxypropylcellulose) (HPC) 97 % of control | dose: 25.0 mg/kg/injection, schedule: Q01DX009 (ip), vehicle: Klucel (hydroxypropylcellulose) (HPC) 104 % of control | dose: 25.0 mg/kg/injection, schedule: Q04DX003 (ip), vehicle: Klucel (hydroxypropylcellulose) (HPC) 101 % of control | dose: 50.0 mg/kg/injection, schedule: Q01DX009 (ip), vehicle: Klucel (hydroxypropylcellulose) (HPC) 100 % of control | dose: 50.0 mg/kg/injection, schedule: Q04DX003 (ip), vehicle: Klucel (hydroxypropylcellulose) (HPC) 95 % of control

O=C(CCCC(=O)NNC(=O)NC(=O)C(Cl)(Cl)Cl)NNC(=O)NC(=O)C(Cl)(Cl)Cl
inactive: [7] 108 % of control | [8] 96 % of control | dose: 200.0 mg/kg/injection, schedule: Q01DX001 (ip), vehicle: saline 102 % of control | dose: 400.0 mg/kg/injection, schedule: Q01DX001 (ip), vehicle: saline 102 % of control

CC(C)(CP(c1ccccc1)c1ccccc1)c1ccccc1
inactive: dose: 25.0 mg/kg/injection, schedule: Q04DX002 (ip), vehicle: saline with Tween-80 95 % of control | dose: 50.0 mg/kg/injection, schedule: Q04DX002 (ip), vehicle: saline with Tween-80 95 % of control | dose: 100.0 mg/kg/injection, schedule: Q04DX002 (ip), vehicle: saline with Tween-80 89 % of control | dose: 200.0 mg/kg/injection, schedule: Q04DX002 (ip), vehicle: saline with Tween-80 92 % of control

Cc1ccc(/C=C/c2ccccn2)cc1
inactive: dose: 50.0 mg/kg/injection, schedule: Q01DX001 (ip), vehicle: carboxymethylcellulose (CMC) 100 % of control | dose: 50.0 mg/kg/injection, schedule: Q04DX003 (ip), vehicle: carboxymethylcellulose (CMC) 105 % of control | dose: 100.0 mg/kg/injection, schedule: Q01DX001 (ip), vehicle: carboxymethylcellulose (CMC) 100 % of control | dose: 100.0 mg/kg/injection, schedule: Q01DX009 (ip), vehicle: carboxymethylcellulose (CMC) 100 % of control and 90 % of control | dose: 100.0 mg/kg/injection, schedule: Q04DX002 (ip), vehicle: carboxymethylcellulose (CMC) 98 % of control and 107 % of control | dose: 100.0 mg/kg/injection, schedule: Q04DX003 (ip), vehicle: carboxymethylcellulose (CMC) 110 % of control | dose: 200.0 mg/kg/injection, schedule: Q01DX001 (ip), vehicle: carboxymethylcellulose (CMC) 100 % of control | dose: 200.0 mg/kg/injection, schedule: Q01DX009 (ip), vehicle: carboxymethylcellulose (CMC) 93 % of control and 108 % of control | dose: 200.0 mg/kg/injection, schedule: Q04DX002 (ip), vehicle: carboxymethylcellulose (CMC) 97 % of control and 113 % of control | dose: 200.0 mg/kg/injection, schedule: Q04DX003 (ip), vehicle: carboxymethylcellulose (CMC) 96 % of control | dose: 400.0 mg/kg/injection, schedule: Q04DX002 (ip), vehicle: carboxymethylcellulose (CMC) 98 % of control and 90 % of control

S=C(c1ccco1)N1CCOCC1
inactive: dose: 75.0 mg/kg/injection, schedule: Q01DX001 (ip), vehicle: carboxymethylcellulose (CMC) 97 % of control | dose: 75.0 mg/kg/injection, schedule: Q01DX009 (ip), vehicle: saline with Tween-80 102 % of control | dose: 75.0 mg/kg/injection, schedule: Q04DX003 (ip), vehicle: saline with Tween-80 104 % of control | dose: 150.0 mg/kg/injection, schedule: Q01DX001 (ip), vehicle: carboxymethylcellulose (CMC) 104 % of control | dose: 150.0 mg/kg/injection, schedule: Q01DX009 (ip), vehicle: saline with Tween-80 100 % of control | dose: 150.0 mg/kg/injection, schedule: Q04DX003 (ip), vehicle: saline with Tween-80 97 % of control | dose: 300.0 mg/kg/injection, schedule: Q01DX001 (ip), vehicle: carboxymethylcellulose (CMC) 98 % of control | dose: 300.0 mg/kg/injection, schedule: Q04DX003 (ip), vehicle: saline with Tween-80 89 % of control

O=C1CC(C(=O)O)C(c2ccccc2F)O1 (stereo unspecified)
inactive: [2] 98 % of control | [4] 101 % of control | [5] 103 % of control

O=NC1C(Cl)C2CC1C1COCC21 (stereo unspecified)
inactive: dose: 100.0 mg/kg/injection, schedule: Q01DX001 (ip), vehicle: Klucel (hydroxypropylcellulose) (HPC) 97 % of control | dose: 200.0 mg/kg/injection, schedule: Q01DX001 (ip), vehicle: Klucel (hydroxypropylcellulose) (HPC) 90 % of control | dose: 400.0 mg/kg/injection, schedule: Q01DX001 (ip), vehicle: Klucel (hydroxypropylcellulose) (HPC) 89 % of control

C(=C1c2ccccc2-c2ccccc21)c1ccccc1
inactive: [9] 100 % of control | [10] 100 % of control | [11] 95 % of control | [12] 100 % of control | [13] 91 % of control | [14] 92 % of control

CCCNCCCSCc1ccccc1
inactive: [7] 111 % of control | [8] 103 % of control

CCCN(CCC)C(=S)[S-].CCCN(CCC)C(=S)[S-].[Zn]
inactive: dose: 100.0 mg/kg/injection, schedule: Q04DX003 (ip), vehicle: saline sonified 100 % of control | dose: 200.0 mg/kg/injection, schedule: Q04DX003 (ip), vehicle: saline sonified 91 % of control | dose: 400.0 mg/kg/injection, schedule: Q04DX003 (ip), vehicle: saline sonified 86 % of control

O=[N+]([O-])c1ccc2c(c1)COCO2
inactive: [10] 95 % of control | [12] 95 % of control | [14] 97 % of control

CCCCC(O)CCC (stereo unspecified)
inactive: [1] 96 % of control | [9] 98 % of control | [2] 98 % of control | [10] 100 % of control | [3] 107 % of control | [11] 95 % of control | [4] 93 % of control | [12] 98 % of control | [6] 95 % of control | [13] 91 % of control | [5] 93 % of control | [14] 98 % of control

Brc1cnn2c1NCC2
inactive: dose: 12.5 mg/kg/injection, schedule: Q01DX009 (ip), vehicle: water 100 % of control | dose: 12.5 mg/kg/injection, schedule: Q04DX003 (ip), vehicle: water 95 % of control | dose: 25.0 mg/kg/injection, schedule: Q01DX009 (ip), vehicle: water 101 % of control | dose: 25.0 mg/kg/injection, schedule: Q04DX003 (ip), vehicle: water 100 % of control | dose: 50.0 mg/kg/injection, schedule: Q01DX009 (ip), vehicle: water 97 % of control | dose: 50.0 mg/kg/injection, schedule: Q04DX003 (ip), vehicle: water 101 % of control | dose: 100.0 mg/kg/injection, schedule: Q01DX009 (ip), vehicle: water 97 % of control and 89 % of control | dose: 200.0 mg/kg/injection, schedule: Q01DX009 (ip), vehicle: water 93 % of control

CCCC(C)(Cl)C(=O)Nc1cccc(OC(=O)NC)c1 (stereo unspecified)
inactive: [10] 92 % of control | [12] 90 % of control | [14] 90 % of control

Cc1ccc(C)c(Nc2nc(Cl)nc3ncn(C)c23)c1
inactive: dose: 100.0 mg/kg/injection, schedule: Q01DX001 (ip), vehicle: other 103 % of control | dose: 100.0 mg/kg/injection, schedule: Q04DX003 (ip), vehicle: other 102 % of control | dose: 200.0 mg/kg/injection, schedule: Q01DX001 (ip), vehicle: other 90 % of control | dose: 200.0 mg/kg/injection, schedule: Q04DX003 (ip), vehicle: other 117 % of control | dose: 400.0 mg/kg/injection, schedule: Q01DX001 (ip), vehicle: other 94 % of control | dose: 400.0 mg/kg/injection, schedule: Q04DX003 (ip), vehicle: other 110 % of control
